Source: patent US10525044B2, “Treatment for chemotherapy-induced peripheral neuropathy” (priority 2013, dated 2020)
Several values for one entry are separate records, joined by “and”; a condition that tells them apart may be missing. Equal entries are not always repeated. Entries after “also recorded” stand apart in the source; their conditions may differ.

How the values were obtained:
[1] = system: mixed cortical and striatal neurons; assay: MTS assay (cell viability) in neuronal cell culture; format: cell-based
Experimental: Neuronal Cell Culture. Mixed cortical and striatal neurons fromembryonic day 17 male Sprague-Dawley rats (tissue obtained from NIH) were seeded into poly-D-lysine coated 96-well plates at density of 50,000 cells/well and initially cultured at 37° C., 5% CO2, in neurobasal medium (NB) with B27 supplement (Invitrogen) containing full strength of AOs to obtain highly enriched (95%) neurons. Since AOs, including vitamin E, vitamin E acetate, superoxide dismutase (SOD), catalase (CAT), and GSH, are additives to culture medium, reduction of AO concentration in culture medium provides an approach to determine the level of OS involvement in a neurotoxic process. In our study, the culture medium was replaced at a 50% ratio with NB plus B27 minus AOs twice at days 7 and 9 to set AO concentrations as 50% and 25%, respectively. At 16 days in vitro (d.i.v.), a fraction of the culture medium was harvested for lactate dehydrogenase (LDH) assay, and then AO concentration was reduced to 12.5% and cultured for a further 5 hours prior to ending the experiment.
(§1) Cell Insults and Treatments. Determination of concentration for each anticancer drug in our experiments was based on its reported concentration in human cerebral spinal fluid (CSF) in chemotherapy, literature report of its neurotoxicity in culture, and our preliminary in vitro experimental data. At 13 d.i.v., the neuronal cell cultures were insulted with 100 μM of MTX (M9929, Sigma), 25 μM of 5-FU (F6627, Sigma), or 3.5 μM of CDDP (sc-200896, Santa Cruz) for 3 days in absence or presence of PAN 811.Cl.H2O. For ROS examination, the neurons were insulted with both 100 μM of MTX and 25 μM of 5-FU by 15 d.i.v. PAN-811.Cl.H2O was added to cultures to final concentrations of 1.25, 2.5, 5, and 10 μM at the same time as addition of the anticancer drugs. For cancer cell lines, the cells were insulted by the second day of cell seeding with the same concentration of MTX, 5-FU, or CDDP as used in neuronal culture in the absence or presence of 10 μM PAN-811.Cl.H2O for another 3 days.
(§2) Quantitative Assays and Morphological Assessment. Cell membrane integrity and mitochondrial function of either neurons or cancer cells were measured with LDH and 3-(4,5-dimethylthiazol-2-yl)-5-(3-carboxymethoxyphenyl)-2-(4-sulfophenyl)-2H-tetrazolium [MTS] analyses, respectively. The latter has been used to quantify cell survival. For the LDH assay, a mixture of a 35 μL aliquot of culture supernatant and 17.5 μL of Mixed Substrate, Enzyme and Dye Solutions (Sigma) was incubated at room temperature (RT) for 30 minutes. For the MTS assay, 10 μL of MTS reagent (Promega) was added to a culture well containing neurons in 50 μL of medium. The preparations were incubated at 37° C. for 2 hours. The preparations for both assays were then spectrophotometrically measured at 490 nm using a 96-well plate reader (Mode 550, Bio-Rad). Neuronal cell death was morphologically determined based on the integrity of the cell soma and continuity of neuronal processes. The change in number of cancer cells was judged directly by cell density. Cells were photographed under an inverted phase contrast microscope (IX 70, Olympus) using 10× or 20× objective.
(§3) Data Analysis. Data were generated from 4-6 replicate wells, expressed as mean±standard deviation (SD), and statistically evaluated at a significance level of 1% with one factor ANOVA or Student's t-test by using software VASSARSTATS (http://vassarstats.net/) followed by the Tukey HSD test. Figure symbols are as follows: #, P<0.05, and ##, P<0.01, compared with control; *, P<0.05, and **, P<0.01, compared with the insulted group; §§, P<0.01, compared with PAN-811 treated group by Student's t-test.

[2] = system: human lung cancer cell line H460; assay: MTS assay in H460 cancer cells; format: cell-based
Experimental: (§4) Cancer Cell Culture. The mouse liver cancer cell line BNLT3 (gift of Dr. Jack Wands, Brown University) and the human lung cancer cell line H460 (ATCC) were seeded into 96-well plates at a density of 4,000 cells/well and cultured at 37° C., 5% CO2, in DMEM (11965, Gibco) supplemented with 10% fetal bovine serum, 20 mM HEPES, 1 mM sodium pyruvate, and […] gentamycin (all reagents came from Gibco).
as §1, §2, §3

[3] = system: human lung cancer cell line H460; assay: LDH assay (membrane integrity) in H460 cancer cells; format: cell-based
Experimental: as §4
as §1, with “[…] […]” for “At 13 d.i.v., the neuronal cell cultures were insulted with 100 μM of MTX (M9929, Sigma), 25 μM of 5-FU (F6627, Sigma), or 3.5 μM of CDDP (sc-200896, Santa Cruz) for 3 days in absence or presence of PAN 811.Cl.H2O. For ROS examination, the neurons were insulted with both 100 μM of MTX and 25 μM of 5-FU by 15 d.i.v.”
as §2, §3

[4] = system: mouse liver cancer cell line BNLT3; assay: Cell density of BNLT3 cells (phase contrast); format: cell-based
Experimental: as §4, §1, §2

[5] = system: hypoxia-induced neuronal cell death; details: 1.2 μM; cited from earlier work
[6] = system: middle cerebral artery occlusion (MCAo); details: cited from earlier work
cultured neuronal cells = details: cited from earlier work
sodium channel = details: cited from earlier work
[7] = system: intracellular free calcium; details: 5 μM; ischemic condition (19-fold increase); cited from earlier work
[8] = 500 μM diphenylpicrylhydrazyl, cell free; cited from earlier work
[9] = 3.5 μM CDDP and 10 μM PAN-811, 3 days
[10] = 25 μM 5-FU and 10 μM PAN-811, 3 days
[11] = 100 μM MTX and 10 μM PAN-811, 3 days
[12] = each agent alone, 3 days: MTX 100 μM, 5-FU 25 μM, CDDP 3.5 μM, PAN-811 10 μM

With `NC(=S)N/N=C/c1ncccc1N` [PAN-811, 3-aminopyridine-2-carboxaldehyde thiosemicarbazone] the “inhibition of CDDP-induced MTS reduction” value ([1]; 10 μM PAN-811, 3.5 μM CDDP, 12.5% AO) was 48%, the “5-FU-induced MTS reduction” value ([1]; 10 μM PAN-811, 25 μM 5-FU, 12.5% AO) was “completely blocked” and the “5-FU- or CDDP-induced MTS reduction, dose dependence” value ([1]; neurons in 12.5% AO, PAN-811 1.25-10 μM) was “dose-dependently inhibited”. For the same molecule, the “interaction with CDDP on suppression of H460 growth” value ([2]; 3.5 μM CDDP and 10 μM PAN-811) was “synergistic effect”, the “reduction of MTS reading, cotreatment with CDDP” value [2, 9] was 85% and the “inhibition of the effect of MTX, 5-FU, or CDDP on cell growth of H460 cells” value ([2]; 10 μM PAN-811) was “did not show any inhibition”. The “interaction with 5-FU on suppression of H460 growth” value ([2]; 25 μM 5-FU and 10 μM PAN-811) was “synergistic effect”, the “reduction of MTS reading, cotreatment with 5-FU” value [2, 10] was 84% and the “MTS reading, cotreatment with MTX” value [2, 11] was “about the same as 10 μM PAN-811 alone”. The “reduction of MTS reading” value [2, 12] was 76% and 74% and 75%, the “increase in LDH reading, cotreatment with CDDP” value [3, 9] was 57% and the “effect on MTX-, 5-FU-, or CDDP-induced membrane leakage” value ([3]; 10 μM PAN-811) was “inhibitory effect”. For the same molecule, the “reduction of LDH reading compared with MTX group, cotreatment” value [3, 11] was 70%, the “increase in LDH reading in culture supernatant” value [3, 12] was 31% and 30% and the “cell density, cotreatment with CDDP” value [4, 9] was “significant reduction in the cell density”. The “cell number, cotreatment with 5-FU” value [4, 10] was “significantly decreased the cell number”, the “cell density, cotreatment with MTX” value [4, 11] was “cell density was also much lower than that in no-insult control” and the “cell density / cancer cell number” value [4, 12] was “cell density was also much lower than that in no-insult control; also recorded: significant reduction in the cell density”. For the same molecule, the “hypoxia-induced neuronal cell death” value [5] was “completely halted”, the reduction of mortality ([6]; PAN-811 treated groups collectively) was 44% and the “reduction in brain edema volume” value ([6]; i.v., 2 mg/kg) was 70%. For the same molecule, the “reduction of infarct volume, maximal protection” value ([6]; single i.v. bolus, 2 mg/kg) was 50%, the “neuroprotection against glutamate insult” value (cultured neuronal cells; cells pretreated with 10 μM for 24 h) was “Nearly complete neuroprotection” and the glutamate-induced excitatory cytotoxicity (cultured neuronal cells) was “prevents”. The “veratridine-induced sodium channel opening related to Ca2+ influx” value (sodium channel) was “prevents”, the “reduction of elevated intracellular free calcium” value [7] was 72% and the “reduction of stable free radical diphenylpicrylhydrazyl” value [8] was 70%.
